Data: patent EP3219329A1, “COMBINATIONS OF COPANLISIB” (Bayer Pharma Aktiengesellschaft, priority 2016, dated 2017)

System: primary (PDX) human lymphoma model LY2298
Test: In vivo B cell lymphoma xenograft model (PDX)
Excerpt: Anti-tumor activity of cpd. B has been analyzed in murine xenograft models. For that purpose tumor fragments from stock mice inoculated with primary human lymphoma tissue were harvested and used for inoculation into female NOD/SCID mice. Each mouse was inoculated subcutaneously at the right flank with primary (PDX) human lymphoma model LY2298 fragment (P7, 2-4 mm in diameter) for tumor development. The treatment was started when the average tumor size reached about 158 mm^3. Mice were allocated randomly into experimental groups according to their tumor sizes, 10 mice per group. The day was denoted as day 0. Treatments were administrated to tumor-bearing mice from day 1 through day 34. Treatment groups were: vehicle control, cpd. B monotherapy, cpd. A monotherapy and combination of cpd. B and cpd A (Table C). Body weights were determined twice per week. Changes in body weight were depicted as treatment related toxicities (>10% stop treatment, >20% termination). Tumor sizes were measured twice weekly in two dimensions using a caliper, and the volume is expressed in mm^3 using the formula: V = 0.5 a x b^2, where a and b are the long and short diameters of the tumor, respectively. The T/C value is an indicator of tumor response to treatment and commonly used as anti-tumor activity endpoint. T and C are the mean tumor volume of the treated and control groups, respectively. Statistical analysis of difference in tumor volume among the groups was evaluated using one-way ANOVA followed by pairweise comparison procedures (Dunett method). P < 0.05 was considered to be statistically significant.
B in monotherapy and combination therapy with cpd. A during treatment of human LY2298 ABC-DLBCL tumors. Cpd. B has been applied orally upon a dose of 20 mg/kg once daily. Cpd. A was applied intraveneously for 2 days followd by a 5 day treatment break upon a dose of 14 mg/kg. Cpd. […] Cpd. […] TABLE C: Anti-Tumor activity of cpd. B in monotherapy and combination with cpd. A in LY2298 PDX model in NOD/SCID mice.

COc1c(OCCCN2CCOCC2)ccc2c1N=C(NC(=O)c1cnc(N)nc1)N1CCN=C21.Cl.Cl [cpd. A, 2-amino-N-[7-methoxy-8-(3-morpholin-4-ylpropoxy)-2,3-dihydroimid-azo[1,2-c]quinazolin-5-yl]pyrimidine-5-carboxamide dihydrochloride]
Max. body weight loss (%) (LY2298 PDX in NOD/SCID mice, cpd. B 20 mg/kg QD p.o., cpd. A 14 mg/kg QD 2on/5off i.v., maximum mean loss as percent of starting weight): -5% | T/C Volume (at day 20) (LY2298 PDX in NOD/SCID mice, cpd. B 20 mg/kg QD p.o., cpd. A 14 mg/kg QD 2on/5off i.v., mean tumor volume treated/control, * P<0.05 vs. Vehicle): 0.22* | Response (at termination) (LY2298 PDX in NOD/SCID mice, cpd. B 20 mg/kg QD p.o., cpd. A 14 mg/kg QD 2on/5off i.v., number of tumors per response class, 10 mice per group): 7x PD, 1x SD, 1x PR, 1x CR | anti-tumor activity (human LY2298 ABC-DLBCL tumors, cpd. B 20 mg/kg once daily orally, cpd. A 14 mg/kg i.v. 2 days on, 5 days break, result in words): initially a strong anti-tumor activity but after 20 treatment days a clear tumor relapse
